The target of test [1] is T1, Adenosine receptor A2a (Homo sapiens, UniProt P29274). Description: Antagonist activity at human adenosine 2A receptor expressed in HEK293 cells co-expressing CRE-luciferase plasmid assessed as inhibition of NECA-stimulated luciferase expression preincubated with compound for 0.5 hrs followed by NECA stimulation and measured after 4 hrs by luciferase based CRE reporter assay. The format is functional, cell-based. For orientation: In a reporter assay the amount or activity of a reporter protein is the signal.
T1 sequence (P29274 whole entry): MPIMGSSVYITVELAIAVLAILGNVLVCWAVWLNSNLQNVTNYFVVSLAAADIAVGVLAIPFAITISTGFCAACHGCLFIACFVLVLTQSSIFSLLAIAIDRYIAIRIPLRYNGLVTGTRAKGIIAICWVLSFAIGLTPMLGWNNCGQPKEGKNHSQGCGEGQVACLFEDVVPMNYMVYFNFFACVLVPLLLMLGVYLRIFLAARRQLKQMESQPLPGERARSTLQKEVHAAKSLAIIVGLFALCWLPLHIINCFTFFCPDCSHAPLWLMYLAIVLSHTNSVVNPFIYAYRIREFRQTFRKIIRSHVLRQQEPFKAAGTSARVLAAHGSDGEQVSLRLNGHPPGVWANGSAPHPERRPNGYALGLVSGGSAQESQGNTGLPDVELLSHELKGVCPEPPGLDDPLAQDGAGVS

Test [2] concerns the target T2, Adenosine receptor A2b (Homo sapiens, UniProt P29275).
T2 sequence (P29275 whole entry): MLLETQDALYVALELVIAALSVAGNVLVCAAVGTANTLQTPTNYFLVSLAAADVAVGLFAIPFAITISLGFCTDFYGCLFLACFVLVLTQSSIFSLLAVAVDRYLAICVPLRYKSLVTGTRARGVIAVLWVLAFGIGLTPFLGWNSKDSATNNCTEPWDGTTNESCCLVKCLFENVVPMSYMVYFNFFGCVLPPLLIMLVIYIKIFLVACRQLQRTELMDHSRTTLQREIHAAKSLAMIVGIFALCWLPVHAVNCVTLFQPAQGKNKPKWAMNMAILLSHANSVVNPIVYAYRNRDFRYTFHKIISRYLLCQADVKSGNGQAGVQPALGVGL
Description: Antagonist activity at human adenosine 2B receptor expressed in HEK293 cells co-expressing CRE-luciferase plasmid assessed as inhibition of NECA-stimulated luciferase expression preincubated with compound for 0.5 hrs followed by NECA stimulation and measured after 4 hrs by luciferase based CRE reporter assay. Type of test: functional, cell-based.

For the next test, the species on record is Homo sapiens. The experiment in a line: Selectivity ratio of IC50 for antagonist activity at human adenosine 2A receptor overexpressed in HEK293 cells to IC50 for antagonist activity at human adenosine 2B receptor overexpressed in HEK293 cells. The format is cell-based.
For test [3], the target named is T2, Adenosine receptor A2b. The experiment in a line: Antagonist activity at human adenosine 2B receptor overexpressed in HEK293 cells preincubated for 0.5 hrs followed by NECA stimulation by Schild plot based GloSensor cAMP assay. Type of test: functional, cell-based. Particulars: read-out: pA2 (converted). Background: Changes in cAMP serve as a functional read-out for many G protein-coupled receptors.

Test [4] has as its target T1, Adenosine receptor A2a. The experiment in a line: Antagonist activity at human adenosine 2A receptor overexpressed in HEK293 cells preincubated for 0.5 hrs followed by NECA stimulation by GloSensor cAMP assay. Type of test: functional, cell-based.
Another test concerns the target T3, Adenosine receptor A1 (Homo sapiens, UniProt P30542).
T3 sequence (P30542 whole entry): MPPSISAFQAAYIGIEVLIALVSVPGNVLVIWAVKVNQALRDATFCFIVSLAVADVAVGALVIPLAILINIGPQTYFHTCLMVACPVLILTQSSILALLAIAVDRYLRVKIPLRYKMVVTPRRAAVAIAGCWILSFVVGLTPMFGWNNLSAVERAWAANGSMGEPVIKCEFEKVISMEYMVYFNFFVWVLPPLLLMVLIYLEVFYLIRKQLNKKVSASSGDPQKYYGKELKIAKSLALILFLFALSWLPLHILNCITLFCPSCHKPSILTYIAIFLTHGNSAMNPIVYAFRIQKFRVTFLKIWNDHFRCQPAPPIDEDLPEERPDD
Description: Antagonist activity at human Adenosine A1 receptor overexpressed in HEK293 cells preincubated for 0.5 hrs followed by NECA stimulation by GloSensor cAMP assay. The format is functional, cell-based.

For the next test, the target named is T4, Adenosine receptor A3 (Homo sapiens, UniProt P0DMS8).
T4 sequence (P0DMS8 whole entry): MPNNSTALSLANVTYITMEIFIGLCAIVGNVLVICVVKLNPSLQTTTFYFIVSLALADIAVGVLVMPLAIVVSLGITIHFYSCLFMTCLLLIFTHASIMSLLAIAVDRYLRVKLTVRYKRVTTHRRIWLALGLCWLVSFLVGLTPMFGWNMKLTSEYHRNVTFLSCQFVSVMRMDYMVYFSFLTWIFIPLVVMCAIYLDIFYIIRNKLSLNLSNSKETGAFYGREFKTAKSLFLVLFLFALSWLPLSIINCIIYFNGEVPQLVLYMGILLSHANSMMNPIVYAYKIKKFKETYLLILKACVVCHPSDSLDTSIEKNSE
Description: Antagonist activity at human Adenosine A3 receptor overexpressed in HEK293 cells preincubated for 0.5 hrs followed by NECA stimulation by GloSensor cAMP assay. Type of test: functional, cell-based.

For test [5], the target named is T2, Adenosine receptor A2b. The experiment in a line: Antagonist activity at human adenosine 2B receptor overexpressed in HEK293 cells preincubated for 0.5 hrs followed by NECA stimulation by GloSensor cAMP assay. The format is functional, cell-based.
Test [6] is described as follows: Downregulation of NECA-induced PD-1 expression in human Jurkat T cells at 0.1 to 10 uM incubated for 5 hrs in presence of PMA and ionomycin by q-PCR analysis. Type of test: functional. Particulars: dose 0.1-10 µM.
Test [7] in a line: Downregulation of NECA-induced TIM-3 expression in human Jurkat T cells at 0.1 to 10 uM incubated for 5 hrs in presence of PMA and ionomycin by q-PCR analysis. Type of test: functional. Particulars: dose 0.1-10 µM.
A further test relates to MC38-OVA. Description: Induction of T-cell mediated cell death in mouse MC38-OVA cells co-cultured with OT-1 CTL assessed as reversal of NECA-induced impairment in OT-I CTL mediated cell killing at 10 uM incubated for 48 hrs by calcein AM dye based fluorescence microscopic analysis. The format is functional.
In test [8] the target is T1, Adenosine receptor A2a. The experiment in a line: Antagonist activity at human adenosine 2A receptor overexpressed in HEK293 cells preincubated for 0.5 hrs followed by NECA stimulation by Schild plot based GloSensor cAMP assay. Particulars: read-out: pA2 (converted). The format is functional, cell-based.
The target of test [9] is T2, Adenosine receptor A2b. The experiment in a line: Antagonist activity at adenosine 2B receptor (unknown origin). The format is functional.
Test [10] has as its target T1, Adenosine receptor A2a. The experiment in a line: Antagonist activity at adenosine 2A receptor (unknown origin).

pIC50, pKi: −log10 of the molar value. Calls of active or inactive are those of the source. The calls are words filed in the database; no cut-off is given here.

Broadly, the pIC50 is the negative decadic logarithm of the IC50, by convention in mol/L. For `Cc1c(C#N)cccc1-c1cc(-c2cn(Cc3c[nH]c4ccc(C#N)cc34)nn2)nc(N)n1`, the pIC50 at Adenosine receptor A2a [1] was 8.14; on Adenosine receptor A2b [2], 8.09; against Adenosine receptor A2a [4], 7.95; on Adenosine receptor A1 it was < 6.00; against Adenosine receptor A3 it was < 6.00; against Adenosine receptor A2b [5], 8.19. For the same compound, in the test listed under Homo sapiens, the Ratio IC50 came to 1.8. For the same compound, the Kb was 1.32 nM on Adenosine receptor A2b [3] and 1.62 nM at Adenosine receptor A2a [8]. In addition, the Activity in test [6] and in test [7] was ~100% each time. Moreover, in the test on MC38-OVA, the result was Active.
The term pKi denotes the Ki on a negative log10 scale, so that one unit is a factor of ten. Low values mean a large Ki, high ones a small Ki. As for `Cc1c(C#N)cccc1-c1cc(-c2cn(Cc3cccc(C(C)(C)O)n3)nn2)nc(N)n1` [ETRUMADENANT], in the test filed under Homo sapiens, the Ratio IC50 was found to be 0.2. Moreover, the values for the pIC50 against Adenosine receptor A2a [4], against Adenosine receptor A1 and against Adenosine receptor A2b [5] were 8.12, 7.06 and 7.50, respectively. The pKi is 8.50 on Adenosine receptor A2b [9] and 9.07 at Adenosine receptor A2a [10].
